“Also recorded” adds a separate entry of the source.
Assays:
[1] = test system: FVIII-deficient plasma; test: Thrombin generation assay (TGA) in FVIII-deficient plasma; format: biochemical, human; settings: for thrombin generation ETP dependence on concentration: 0.01 mg/ml, 0.1 mg/ml, and 0.4 mg/ml in FVIII-deficient plasma
Excerpt: Thrombin generation is regarded as a significant indicator of the efficiency of blood clotting. Therefore, the thrombin generation assay (“TGA”) can be used as a proxy to estimate overall blood clotting efficiency of factor proteins and others agents from observing the clotting of plasma samples. The thrombin generation experiments were run using a microtiter plate fluorometer. Solvent systems consisting of a buffer, a fluorogenic substrate, and eight candidate compounds in inert solvents were added to pre-warmed citrated FVIII-deficient plasma along with tissue factor. The clotting reactions in the plasma-compound mixtures were initiated by adding calcium chloride solution to all the samples, and the fluorescence measurements recorded by the fluorimeter were compared against negative control (FVIII-deficient plasma without compounds or solvent system), vehicle control (FVIII-deficient plasma with solvent system only), and positive control (FVIII-deficient plasma mixed with regular plasma) reference measurements.
Each of the eight candidate compounds was tested via the TGA at three different concentrations.

[2] = test system: heparinized rabbit blood; test: Heparinized clotting test (in vitro); format: biochemical
Procedure: The purpose of this experiment was to deduce a potential mechanism of action for chalcones in decreasing blood clotting and bleeding time. First, rabbit blood (200 μL) was added to the anticoagulant drug heparin (1.25 IU) in Eppendorf Tubes®. […] In untreated blood that is still inside a human or an animal, heparan sulfate that is found on cellular surfaces plays an equivalent role to heparin by forming a heparan-antithrombin complex and activating antithrombin.

[3] = test system: ex vivo Hemophilia A human blood; test: Ca+2ACT whole blood coagulation time test, Hemophilia A human blood; format: biochemical; settings: for mean clotting time: Hemophilia A blood specimens
Excerpt: (§1) While there are standardized tests such as Activated Partial Thromboplastin Time (“aPTT”) and Partial Thromboplastin Time (“PPT”) that measure blood clotting times (i.e., coagulation times), none of these tests are amenable to testing a small molecule drug, mainly due to the fact that the clotting agents added in these tests completely overcome the effect of the drug. A Calcium +2 ion Activated Coagulation Time test (“Ca+2ACT test”) was developed for measuring coagulation times that is devoid of the activators, thereby allowing drug candidates to be tested and verify their effects. The results described below use whole blood clotting assay and measure the coagulation of blood (i.e., blood's ability to clot), specifically, how much time is required for the clotting.
In this study, calcium chloride (“CaCl2”), a standard coagulating compound, is used as a control to compare the efficacy of various test samples. DMA is used as vehicle for various test samples. In a first study, a freshly prepared 5 μl test sample in DMA is added to a 100 μl blood specimen and then incubated in incubation slot of KC1 Delta machine Correlated Stago-Startmax for 37° C. for 3 min. For the control sample, 50 μl of CaCl2 solution is added, and timer started, to a 100 μl blood specimen to provide a baseline against the test sample. A stop watch, and automated electronic machine display, is used to measure the coagulation time in connection with an electronic signal provided the testing machine. Fresh citrated blood specimen from six healthy volunteers and six hemophilia patients, with initial standard citrate concentration in the collected blood of 3.5%, and “in cuvette” calcium +2 activation (by addition of CaCl2 solution) was obtained.
In this study, the effect of drug is measured by coagulation time of blood using the Ca+2ACT test, in presence of variable concentration of the drug in the test sample. The efficacy tests used 5 microliter of 40 mg/mL solution added to 155 microliter final volume in the clotting cuvette, corresponding to […] of the clotting mixture. For the dose dependence studies, we examined three persons. The twelve concentrations range chosen is 5 microliter of 0.05 mg/mL to 40 mg/mL, the vehicle being zero point concentration. This corresponds to mimimum concentration in the study of 1.66 microgram/mL or 1.66 ppm of the drug, not withstanding Vehicle Control of zero. […] FIG. 45 illustrates coagulation time versus concentration for the candidate molecule 1 for blood specimens from a second patient. FIG. 46 illustrates coagulation time versus concentration for the candidate molecule 1 for blood specimens from a third patient.
As discussed above, the effect is measured by coagulation time of blood using the Ca+2ACT test, in presence of variable concentration of the drug. Initial efficacy tests used 5 microliters of 40 mg/mL solution added to 155 microliter final volume in the clotting cuvette, corresponding to 1.29 mg/1000 mg of the clotting mixture. More recent tests used 10E-2 to 10E-22 as concentration range with 1E-2 interval. Samples were tested no later than eight hours after collection, and preferably, no later than four hours after collection. Often times, with very low and zero concentrations of clotting agents, although the instrument recorded a clotting time, the samples were fluid and partially coagulated at best. However, good fit was obtained at 1E-18 and good statistical difference was obtained at 1E-16, with significant statistical p-values at 10E-8 and higher concentrations, a very good range for drug design. […] The dose dependence study was performed using NDA solvent, and water in case of Eloctate™.

[4] = test system: Factor VIII Deficient Mice; test: Fibrin (fibrinogen) content of blood of Factor VIII deficient mice; format: in vivo; settings: FVIII deficient mice, blood taken at end of experiment
Procedure: (§2) The purpose of this experiment was to evaluate the effectiveness of chalcones on tail bleeding time in mice. […] A distal 10 mm segment of each mouse's tail was amputated with a scalpel and the remaining tail stump was immediately immersed in a 50 mL Falcon tube containing isotonic saline pre-warmed in a water bath to 37° C. Each mouse was allowed to bleed freely for 20 minutes even if bleeding ceased, in order to detect any re-bleeding. Bleeding time was determined using a stopwatch. At the end of the 20 minutes, the experiment was terminated to avoid lethality. All animals were then bled additionally to obtain a sufficient amount of blood for determining fibrinogen content. Organs were collected, weighed and preserved for future assays.

[5] = test system: normal plasma; test: Thrombin generation assay (TGA) in normal plasma; format: biochemical, human
[6] = test system: ex vivo healthy human blood; test: Ca+2ACT whole blood coagulation time test, healthy human blood; format: biochemical; settings: 1 mg/ml, healthy blood specimens; vehicle control 208.87 seconds
Excerpt: as §1
In this study, calcium chloride (“CaCl2”), a standard coagulating compound, is used as a control to compare the efficacy of various test samples. DMA is used as vehicle for various test samples. In a first study, a freshly prepared 5 μl test sample in DMA is added to a 100 μl blood specimen and then incubated in incubation slot of KC1 Delta machine Correlated Stago-Startmax for 37° C. for 3 min. For the control sample, 50 μl of CaCl2 solution is added, and timer started, to a 100 μl blood specimen to provide a baseline against the test sample. […]

[7] = Bodyweight of Factor VIII deficient mice; format: in vivo; settings: FVIII deficient mice, mean (spread)
[8] = test system: Wistar rats; test: Ex vivo capillary clotting assay in Wistar rats; settings: ex vivo oral, compared with chromatography fractions (FIG. 3)
Excerpt: During the bioassay-guided fractionation process, blood clotting time was used as a screen for active compounds, and a particular class of compounds known as chalcones was discovered to induce blood coagulation. FIG. 3 illustrates a sample result from an ex vivo capillary clotting assay in Wistar rats in accordance with various embodiments of the invention as described in further detail below.

[9] = test system: Factor VIII Deficient Mice; test: Tail bleeding assay in FVIII-KO mice; format: in vivo
Procedure: as §2

[10] = test system: Factor VIII Deficient Mice; test: Capillary clotting time in Factor VIII deficient mice; format: in vivo; settings: FVIII deficient mice; HF-2021a oral once daily for seven days; FVIII intravenous

Compound: COc1ccc(C=CC(=O)c2c(O)cc(OC)cc2OC)cc1 [HF-2021b, 1-(2-hydroxy-4,6-dimethoxyphenyl)-3-(4-methoxyphenyl)prop-2-en-1-one]
- thrombin generation ETP dependence on concentration [1]: observed dose dependence
- activity in the heparinized blood assay ([2]; heparinized blood): active blood clotting agent

Compound: CC(C)=CCOc1ccc(/C=C/C(=O)c2ccc(OCC=C(C)C)cc2OCC(=O)O)cc1 [HF-2021e, 2-[5-(3-methylbut-2-enoxy)-2-[(E)-3-[4-(3-methylbut-2-enoxy)phenyl]prop-2-enoyl]phenoxy]acetic acid]
- thrombin generation ETP dependence on concentration [1]: observed dose dependence
- thrombin concentration and ETP, combined dosing with HEMLIBRA ([1]; 0.1 mg/mL combined with 25, 50, 75 μg/ml HEMLIBRA, versus each drug alone (FIG. 32, 33)): greater thrombin concentrations and ETPs than any individual dosage
- thrombin concentration and ETP, combined dosing with HEMLIBRA ([1]; 0.1 mg/ml + 25 μg/ml HEMLIBRA versus 75 μg/ml HEMLIBRA alone): slightly more thrombin concentration and ETP
- possible cut of the required dose of HEMLIBRA on concurrent use ([1]; 0.1 mg/ml + 25 μg/ml HEMLIBRA, roughly same thrombin generation as 75 μg/ml): 67%
- effect on thrombin concentration and ETP compared with HEMLIBRA ([1]; 0.4 mg/ml versus lowest tested HEMLIBRA concentration 25 μg/ml (FIG. 30, 31)): slightly lower effect
- mean clotting time ([3]; 0.1 mg/mL, vehicle control 247.61 seconds): 118.92 s
- coagulation times compared with Eloctate ([3]; HF2021e in NDA, Eloctate in water (FIG. 43)): higher than the coagulation times for Eloctate™
- EC50 compared with Eloctate ([3]; concentration for 50% of the total effect on coagulation time (FIG. 43)): lower than for Eloctate™
- coagulation time dependence on dose ([3]; dose dependence study in NDA solvent (FIG. 43)): linear coagulation time dependence

Compound: O=C(C=Cc1ccc2c(c1)OCO2)c1ccccc1 [HF-2022a, 3-(1,3-Benzodioxol-5-yl)-1-phenyl-2-propen-1-one]
- thrombin generation ETP dependence on concentration [1]: observed dose dependence

Compound: COc1ccc(C=CC(=O)c2c(O)cc(O)cc2O)cc1 [ISK-CH, Iso-Sakutanetin Chalcone]
- mean clotting time ([3]; 1×10^−7 mg/mL, vehicle control 200.87 seconds): 116.4 s

Compound: 4-methoxyphenyl-3-(2,4-dimethoxyphenyl)-1-oxo-2-propene [HF-2021f]
- thrombin generation ETP dependence on concentration [1]: observed dose dependence

Compound: COc1ccc(/C=C/C(=O)c2c(O)cc(O[C@@H]3O[C@H](CO[C@@H]4O[C@@H](C)[C@H](O)[C@@H](O)[C@H]4O)[C@@H](O)[C@H](O)[C@H]3O)cc2OC)cc1O [HF-2021d, (E)-3-(3-hydroxy-4-methoxyphenyl)-1-[2-hydroxy-6-methoxy-4-[(2S,3R,4S,5S,6R)-3,4,5-trihydroxy-6-[[(2R,3R,4R,5R,6S) -3,4,5-trihydroxy-6-methyloxan-2-yl]oxymethyl]oxan-2-yl]oxyphenyl]prop-2-en-1-one]
- thrombin generation ETP dependence on concentration [1]: observed dose dependence

Compound: O=C(/C=C/c1ccc(O)cc1)c1ccc(O)cc1O [HF-2021c, (E)-1-(2,4-dihydroxyphenyl)-3-(4-hydroxyphenyl)prop-2-en-1-one]
- thrombin generation ETP dependence on concentration [1]: observed dose dependence

Compound: COc1cc(O)c(C(=O)C=Cc2ccc(O)cc2)c(OC)c1OC [HF-2021a, 1-(6-Hydroxy-2,3,4-trimethoxyphenyl)-3-(4-hydroxy-phenyl)prop-2-en-1-one]
- thrombin generation ETP dependence on concentration [1]: observed dose dependence
- effect on thrombin concentration and ETP compared with HEMLIBRA ([1]; 0.1 mg/ml versus any of the concentrations of HEMLIBRA (FIG. 28, 29)): comparable effects
- thrombin response compared with FVIII-deficient plasma containing 10% of normal FVIII ([1]; 0.4 mg/ml (FIG. 18, 19)): superior to that of 10% of normal FVIII activity
- effect on thrombin concentration and ETP compared with HEMLIBRA ([1]; 0.4 mg/ml versus highest tested HEMLIBRA concentration 75 μg/ml (FIG. 28, 29)): slightly larger effect
- thrombin concentration and ETP, combined with ELOCTATE ([1]; all tested concentrations, plasma of a patient who had taken ELOCTATE (FIG. 34, 35)): greater thrombin concentrations and ETPs than ELOCTATE® by itself
- mean clotting time ([3]; 1 mg/mL, vehicle control 228.92 seconds): 64.92 s
- coagulation time versus concentration ([3]; blood specimens of three patients, twelve concentrations (FIG. 44-46)): clear dependency
- Fibrin content (mg/dL) [4]: 281.2 (44.1) mg/dL
- thrombin generation curves versus concentration ([5]; normal plasma (FIG. 20)): dose dependent response
- thrombin generation ETP versus concentration ([5]; normal plasma (FIG. 21)): dose dependent response is also observed
- mean clotting time [6]: 74.12 s
- Bodyweight (Day 0) ([7]; Day 0 (baseline)): 17.4 (1.4)
- Bodyweight (Day 7) ([7]; Day 7): 18.8 (1.1)
- effect on capillary clotting time [8]: nearly identical to that of the chromatography fractions
- blood clotting time versus concentration ([2]; rabbit blood 200 μL + heparin 1.25 IU, varying concentrations in DMSO (FIG. 7)): dose dependence relationship was observed
- Optical Density ([9]; FVIII deficient mice, tail bleeding experiment): 0.5 (0.1)
- tail bleeding time (in words) ([9]; FVIII-KO mice, repeated oral administrations, versus standard FVIII therapy (FIG. 4)): outperforming the standard FVIII therapy; also recorded: significantly improved
- Survival Rate ([9]; after 48 hours): 3/5 after
- Bleeding Time (Seconds) ([9]; tail amputation 10 mm, saline 37° C., HF-2021a oral once daily for seven days, FVIII intravenous): 41.8 (9.7) Seconds
- Capillary Clotting Time (Seconds) [10]: 44.6 (13.2) Seconds

Compound: O=C(/C=C/c1ccc(O)cc1)c1c(O)cc(O)cc1O [HF-2021g, (E)-3-(4-hydroxyphenyl)-1-(2,4,6-trihydroxyphenyl)prop-2-en-1-one]
- thrombin generation ETP dependence on concentration [1]: observed dose dependence
